Series [1] has as its system HCV replicon I389luc-ubi-neo/NS3-3'/5.1. As to the kind of experiment: Anti-HCV replicon assay (luciferase activity) in Huh-5-2 cells. Conditions: Hepatitis C virus, concentration required to inhibit luciferase activity in the replicon system by 50%. Type of series: cell-based, Hepatitis C virus. The method in brief:
(§1)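 Huh-5-2 cells carrying the luciferase HCV replicon, seeded 24 h, then exposed to serial compound dilutions without G418 for 72 h at 37° C, 5% CO2. Replication read as luciferase luminescence, expressed as percentage of untreated cultures; culture density measured in parallel by MTS.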

Series [2] relates to HCV replicon (RNA) synthesis. As to the kind of experiment: Quantitative analysis of HCV replicon RNA by Taqman real-time RT-PCR in Huh-5-2 cells. Type of series: cell-based, Hepatitis C virus. Conditions: for EC50: Hepatitis C virus, Huh-5-2, concentration required to reduce the synthesis of HCV replicon by 50% as determined by real-time quantitative RT-PCR; for CT: Huh-5-2 cells, untreated 26.27 ± 0.34; for Delta CT: higher Delta CT = more profound inhibition of viral RNA synthesis. As for the experimental part:
Replicon cells were plated at 7.5×10^3 cells per well in a 96-well plate plates at 37° C. and 5% CO2 in Dulbecco's modified essential medium containing 10% fetal calf serum, 1% nonessential amino acids and 1 mg/ml Geneticin. After allowing 24 h for cell attachment, different dilutions of compound were added to the cultures. Plates were incubated for 5 days, at which time RNA was extracted using the Qiamp Rneazyi Kit (Qiagen, Hilden, Germany). […] After initial activation of uracil-N-glycosylase at 50° C. for 2 minutes, RT was performed at 60° C. for 30 minutes, followed by inactivation of uracil-N-glycosylase at 95° C. for 5 minutes. Subsequent PCR amplification consisted of 40 cycles of denaturation at 94° C. for 20 seconds and annealing and extension at 62° C. for 1 minute in an ABI 7700 sequence detector. For each PCR run, negative template and positive template samples were used. The cycle threshold value (Ct-value) is defined as the number of PCR cycles for which the signal exceeds the baseline, which defines a positive value. The sample was considered to be positive if the Ct-value was <50. Results are expressed as genomic equivalents (GE).

The nature of series [3]: Proliferation of exponentially growing Huh-5-2 cells (MTS method). Conditions: human. The gist of the method:
as §1

The mark [4] stands for this setting: CC50, concentration required to inhibit the proliferation of exponentially growing Huh-5-2 cells by 50%, Table 2.
Where [5] appears, read: CC50, concentration required to inhibit the proliferation of exponentially growing Huh-5-2 cells by 50%, Table 4.

In brackets after ≈: the same amount, converted by molar mass. Read-outs that look alike come from different tables or passages of the source.

Data on 23 compounds can be found in US20110224208A1, “NOVEL INHIBITORS OF FLAVIVIRUS REPLICATION” (KATHOLIEKE UNIVERSITEIT LEUVEN, K.U. LEUVEN R&D, priority 2008, published 2011).

Consider `COCCN1C(=O)c2ccccc2C(C(=O)Nc2ccc(-c3ccco3)cc2)C1c1cccs1` (stereo not drawn) [C159, N-(4-(furan-2-yl)phenyl)-2-(2-methoxyethyl)-1-oxo-3-(thiophen-2-yl)-1,2,3,4-tetrahydroisoquinoline-4-carboxamide], for which, in series [1] (Huh-5-2, 72 h), the IC50 came out at 0.028 µg/mL (≈ 0.0593 µM). Further, the EC50 in series [2] is 0.064 µg/mL (≈ 0.135 µM). Further, the CC50 at 72 h in series [3] (setting [4]) was > 100 µg/mL; in series [3] (setting [5]), > 50 µg/mL.
The compound `COCCN1C(=O)c2c(ccc(OC)c2F)C(C(=O)Nc2cccc(OC)c2)C1c1cccs1` (stereo not drawn) [C128, 8-fluoro-7-methoxy-2-(2-methoxyethyl)-N-(3-methoxyphenyl)-1-oxo-3-(thiophen-2-yl)-1,2,3,4-tetrahydroisoquinoline-4-carboxamide] gave an IC50 in series [1] (Huh-5-2, 72 h) of 0.4 µg/mL (≈ 0.826 µM). The EC50 in series [2] worked out at 0.14 µg/mL (≈ 0.289 µM).
For the compound `C#CC1C(C(=O)Nc2ccc(-n3cccc3)cc2)c2ccccc2C(=O)N1CCOC` (stereo not drawn) [C152, N-(4-(1H-pyrrol-1-yl)phenyl)-3-ethynyl-2-(2-methoxyethyl)-1-oxo-1,2,3,4-tetrahydroisoquinoline-4-carboxamide], the 50% inhibitory concentration (IC50) in series [1] (Huh-5-2, 72 h) amounted to 0.2 µg/mL (≈ 0.484 µM). The EC50 in series [2] was 0.2 µg/mL (≈ 0.484 µM). The CC50 at 72 h in series [3] (setting [4]) is 30 µg/mL (≈ 72.6 µM); in series [3] (setting [5]) it was > 30 µg/mL.
Compound `COCCN1C(=O)c2ccccc2C(C(=O)Nc2ccc(-c3ncccn3)cc2)C1c1cccs1` (stereo not drawn) [C175, 2-(2-methoxyethyl)-1-oxo-N-(4-(pyrimidin-2-yl)phenyl)-3-(thiophen-2-yl)-1,2,3,4-tetrahydroisoquinoline-4-carboxamide] registered an IC50 in series [1] (Huh-5-2, 72 h) of 0.057 µg/mL (≈ 0.118 µM). In addition, the EC50 in series [2] is 0.046 µg/mL (≈ 0.0949 µM).
The matching figures for `COCCN1C(=O)c2ccccc2C(C(=O)Nc2ccc(-n3cccc3)cc2)C1c1ccc(Cl)s1` (stereo not drawn) [C153, N-(4-(1H-pyrrol-1-yl)phenyl)-3-(5-chlorothiophen-2-yl)-2-(2-methoxyethyl)-1-oxo-1,2,3,4-tetrahydroisoquinoline-4-carboxamide]: 0.104 µg/mL (≈ 0.206 µM) and 1.12 µg/mL (≈ 2.21 µM).
In the case of `COCCN1C(=O)c2ccccc2C(C(=O)Nc2ccc(OC)c(OC)c2)C1c1cccs1` (stereo not drawn) [C48, N-(3,4-dimethoxyphenyl)-2-(2-methoxyethyl)-1-oxo-3-(thiophen-2-yl)-1,2,3,4-tetrahydroisoquinoline-4-carboxamide], half-maximal inhibition in series [1] (Huh-5-2, 72 h) (IC50) was put at 0.3 µg/mL (≈ 0.643 µM). In series [2], this compound registered an EC50 of 0.6 µg/mL (≈ 1.29 µM).
`COCCN1C(=O)c2ccccc2C(C(=O)Nc2ccc(-c3noc(C)n3)cc2)C1c1cccs1` (stereo not drawn) [C187, 2-(2-methoxyethyl)-N-(4-(5-methyl-1,2,4-oxadiazol-3-yl)phenyl)-1-oxo-3-(thiophen-2-yl)-1,2,3,4-tetrahydroisoquinoline-4-carboxamide] came in with an IC50 in series [1] (Huh-5-2, 72 h) of 0.01 µg/mL (≈ 0.0205 µM). Besides, in series [2], the EC50 was < 0.016 µg/mL.
Regarding `COCCN1C(=O)c2ccccc2C(C(=O)Nc2ccc(C(=O)OC)cc2)C1c1cccs1` (stereo not drawn) [C45, Methyl 4-(2-(2-methoxyethyl)-1-oxo-3-(thiophen-2-yl)-1,2,3,4-tetrahydroisoquinoline-4-carboxamido)benzoate], in series [1] (Huh-5-2, 72 h), the IC50 is 0.1 µg/mL (≈ 0.215 µM). Also, the 50% effective concentration (EC50) in series [2] was found to be 12 µg/mL (≈ 25.8 µM).
The compound `COCCN1C(=O)c2ccccc2C(C(=O)Nc2ccc(-c3csc(C)n3)cc2)C1c1cccs1` (stereo not drawn) [C157, 2-(2-methoxyethyl)-N-(4-(2-methylthiazol-4-yl)phenyl)-1-oxo-3-(thiophen-2-yl)-1,2,3,4-tetrahydroisoquinoline-4-carboxamide] yielded a concentration for half-maximal inhibition (IC50) in series [1] (Huh-5-2, 72 h) of 0.04 µg/mL (≈ 0.0794 µM). The same compound showed an EC50 in series [2] of 0.036 µg/mL (≈ 0.0715 µM).
In series [1] (Huh-5-2, 72 h), `COCCN1C(=O)c2ccccc2C(C(=O)Nc2cc(C(C)(C)C)on2)C1c1cccs1` (stereo not drawn) [C142, N-(5-tert-butylisoxazol-3-yl)-2-(2-methoxyethyl)-1-oxo-3-(thiophen-2-yl)-1,2,3,4-tetrahydroisoquinoline-4-carboxamide] returned an IC50 of 0.04 µg/mL (≈ 0.0882 µM). The compound also yielded an EC50 in series [2] of 0.22 µg/mL (≈ 0.485 µM).
For `COCCN1C(=O)c2ccccc2C(C(=O)Nc2ccc3nc(C)ccc3c2)C1c1cccs1` (stereo not drawn) [C168, 2-(2-methoxyethyl)-N-(2-methylquinolin-6-yl)-1-oxo-3-(thiophen-2-yl)-1,2,3,4-tetrahydroisoquinoline-4-carboxamide], in series [1] (Huh-5-2, 72 h), half-maximal inhibition (IC50) was put at 0.037 µg/mL (≈ 0.0785 µM). Further, the EC50 in series [2] amounted to 0.048 µg/mL (≈ 0.102 µM).
Consider `COCCN1C(=O)c2ccccc2C(C(=O)Nc2ccc(-c3cnco3)cc2)C1c1cccs1` (stereo not drawn) [C178, 2-(2-methoxyethyl)-N-(4-(oxazol-5-yl)phenyl)-1-oxo-3-(thiophen-2-yl)-1,2,3,4-tetrahydroisoquinoline-4-carboxamide], for which, in series [1] (Huh-5-2, 72 h), it took 0.035 µg/mL (≈ 0.0739 µM) to reach half-maximal inhibition (IC50). Besides, the EC50 in series [2] stood at 0.036 µg/mL (≈ 0.076 µM).
With `COCCN1C(=O)c2ccccc2C(C(=O)Nc2ccc(Cl)cc2)C1c1cccs1` (stereo not drawn) [C49, N-(4-chlorophenyl)-2-(2-methoxyethyl)-1-oxo-3-(thiophen-2-yl)-1,2,3,4-tetrahydroisoquinoline-4-carboxamide], half-maximal inhibition in series [1] (Huh-5-2, 72 h) (IC50) was put at 0.1 µg/mL (≈ 0.227 µM). The compound further had an EC50 in series [2] of 0.85 µg/mL (≈ 1.93 µM).
In series [1] (Huh-5-2, 72 h), `COCCN1C(=O)c2ccccc2C(C(=O)Nc2ccc(Oc3cncc(C)n3)cc2)C1c1cccs1` (stereo not drawn) [C191, 2-(2-methoxyethyl)-N-(4-(6-methylpyrazin-2-yloxy)phenyl)-1-oxo-3-(thiophen-2-yl)-1,2,3,4-tetrahydroisoquinoline-4-carboxamide] yielded an IC50 of 0.013 µg/mL (≈ 0.0253 µM). For the same compound, in series [2], a half-maximal effect (EC50) was put at 0.013 µg/mL (≈ 0.0253 µM).
In turn, `COCCN1C(=O)c2c(F)cccc2C(C(=O)Nc2cccc(OC)c2)C1c1cccs1` (stereo not drawn) [C51, 8-Fluoro-2-(2-methoxyethyl)-N-(3-methoxyphenyl)-1-oxo-3-(thiophen-2-yl)-1,2,3,4-tetrahydroisoquinoline-4-carboxamide] had an IC50 in series [1] (Huh-5-2, 72 h) of 0.5 µg/mL (≈ 1.1 µM). For the same compound, in series [2], the EC50 is < 0.4 µg/mL.
Compound `COc1cccc(NC(=O)C2c3ccccc3C(=O)N(CCO)C2c2cccs2)c1` (stereo not drawn) [C23, 2-(2-Hydroxyethyl)-N-(3-methoxyphenyl)-1-oxo-3-(thiophen-2-yl)-1,2,3,4-tetrahydroisoquinoline-4-carboxamide] showed an IC50 in series [1] (Huh-5-2, 72 h) of 43 µg/mL (≈ 102 µM). In series [3] (setting [4]), this compound showed a CC50 at 72 h of 118 µg/mL (≈ 280 µM).
For the compound `COCCN1C(=O)c2ccccc2C(C(=O)Nc2ccc(C)c(NS(C)(=O)=O)c2)C1c1cccs1` (stereo not drawn) [C213, 2-(2-methoxyethyl)-N-(4-methyl-3-(methylsulfonamido)phenyl)-1-oxo-3-(thiophen-2-yl)-1,2,3,4-tetrahydroisoquinoline-4-carboxamide], in series [1] (Huh-5-2, 72 h), the IC50 worked out at 0.036 µg/mL (≈ 0.0701 µM). Further, the CC50 at 72 h in series [3] (setting [4]) is > 100 µg/mL.
`C#CC1C(C(=O)Nc2cccc(OC)c2)c2ccccc2C(=O)N1CCOC` (stereo not drawn) [C83, 3-ethynyl-2-(2-methoxyethyl)-N-(3-methoxyphenyl)-1-oxo-1,2,3,4-tetrahydroisoquinoline-4-carboxamide] gave an IC50 in series [1] (Huh-5-2, 72 h) of 0.4 µg/mL (≈ 1.06 µM). Also, the CC50 at 72 h in series [3] (setting [4]) was found to be 70 µg/mL (≈ 185 µM).
`COCCN1C(=O)c2ccccc2C(C(=O)Nc2cccc(OC)c2)C1c1ccco1` (stereo not drawn) [C6, 3-(furan-2-yl)-2-(2-methoxyethyl)-N-(3-methoxyphenyl)-1-oxo-1,2,3,4-tetrahydroisoquinoline-4-carboxamide]: the IC50 in series [1] (Huh-5-2, 72 h) stood at 6.3 µg/mL (≈ 15 µM). It took 69.6 µg/mL (≈ 166 µM) to reach half-maximal cytotoxicity in series [3] (setting [4]) (CC50 at 72 h).
The matching figures for `COCCN1C(=O)c2ccccc2C(C(=O)Nc2cccc(OC)c2)C1c1cc(C)on1` (stereo not drawn) [C103, 2-(2-methoxyethyl)-N-(3-methoxyphenyl)-3-(5-methylisoxazol-3-yl)-1-oxo-1,2,3,4-tetrahydroisoquinoline-4-carboxamide]: 40.4 µg/mL (≈ 92.7 µM) and 75.2 µg/mL (≈ 173 µM).
The compound `COCCN1C(=O)c2ccccc2C(C(=O)Nc2cccc(F)c2)C1c1cccs1` (stereo not drawn) [C47, N-(3-fluorophenyl)-2-(2-methoxyethyl)-1-oxo-3-(thiophen-2-yl)-1,2,3,4-tetrahydroisoquinoline-4-carboxamide] registered an IC50 in series [1] (Huh-5-2, 72 h) of 0.4 µg/mL (≈ 0.942 µM). In addition, in series [2], the EC50 was 1.42 µg/mL (≈ 3.35 µM).
`COCCN1C(=O)c2ccccc2C(C(=O)Nc2nc3ccc(OC)cc3s2)C1c1ccc(F)cc1` (stereo not drawn) [C273, 3-(4-fluorophenyl)-N-(6-methoxybenzo[d]thiazol-2-yl)-2-(2-methoxyethyl)-1-oxo-1,2,3,4-tetrahydroisoquinoline-4-carboxamide]: in series [1] (72 hours, read-out: IC50), the concentration for half-maximal inhibition (IC50) is 1.4 µg/mL (≈ 2.77 µM). In addition, the midpoint of cytotoxicity in series [3] (Huh-5-2 cells (Huh-5 cell line with persistent HCV replicon)), the CC50 at 72 h, lay at 14.9 µg/mL (≈ 29.5 µM).
Take `COCCN1C(=O)c2ccccc2C(C(=O)Nc2cccc(OC)c2)C1c1cccs1` (stereo not drawn) [2-(2-methoxyethyl)-N-(3-methoxyphenyl)-1-oxo-3-(thiophen-2-yl)-1,2,3,4-tetrahydroisoquinoline-4-carboxamide]: the CT in series [2] (5 ug/ml) was 28.65; in series [2] (10 ug/ml), 29.29; in series [2] (20 ug/ml), 29.24. Further, the figures for the “Delta CT” value in series [2] (5 ug/ml), in series [2] (10 ug/ml) and in series [2] (20 ug/ml) were 2.38, 3.02 and 2.97, respectively.
